{"source": "patent US20240173312A1", "about": "“Pharmaceutical Composition Comprising a Benzoheterocyclic Compound and Androgen Receptor Pathway Modulator and Application Thereof” (KANGPU BIOPHARMACEUTICALS, LTD., priority 2015, published 2024)", "key": {"[1]": {"tested_on": "Vcap cells (androgen receptor (+) prostate cancer cells)", "method": "(§1) In vitro test of the inhibition effect of the compound in combination with androgen receptor pathway modulators and the like on the prostate cancer cell proliferation.\n(§2) The tested compounds were used alone or in combination with other androgen receptor pathway modulators respectively. […] After that, 100 μl of CellTiter-Glo® cell viability assay reagent (Promega, catalogue number G7570) was added to each well and mixed well on a vibrator for 10 minutes to induce cell lysis. The 96-well plate was placed at room temperature for 10 minutes, so as to stabilize its luminescence signal. A white bottom membrane was pasted on the bottom of the plate and the plate was tested using EnSpire."}, "[2]": {"tested_on": "Vcap cells (androgen receptor (+) prostate cancer cells)", "assay": "CTG cell proliferation assay (CellTiter-Glo)", "method": "as §1, §2"}, "[3]": {"details": "Homo sapiens, VCaP, 120 h, read-out: Survival rate of Vcap cells, Table 3, tested compound alone"}, "[4]": {"details": "Homo sapiens, VCaP, 120 h, read-out: Survival rate of Vcap cells, Table 4, tested compound alone"}, "[5]": {"details": "Homo sapiens, VCaP, 120 h, read-out: Survival rate of Vcap cells, Table 5, tested compound alone"}, "[6]": {"details": "Homo sapiens, VCaP, 120 h, read-out: Survival rate of Vcap cells, Table 9, tested compound alone"}, "[7]": {"details": "Homo sapiens, VCaP, 120 h, read-out: Survival rate of Vcap cells, Table 10, tested compound alone"}, "[8]": {"details": "Homo sapiens, VCaP, 120 h, read-out: Vcap cell proliferation inhibition rate"}}, "note": "Read-outs that look alike come from different tables or passages of the source."}
{"smiles": "Nc1cccc2c1CN(C1CCC(=O)NC1=O)C2=O", "note": "(stereo not shown) [B001]", "values": [{"measurement": "inhibition", "setting": "[1]", "value": 21.4, "unit": "%"}, {"measurement": "viability at 0.1 µM", "setting": "[2]; [3]", "value": 92, "unit": "%"}, {"measurement": "viability at 1 µM", "setting": "[2]; Homo sapiens, VCaP, 120 h, read-out: Survival rate of Vcap cells, Table 3, tested compound alone, 1.0 μM", "value": 82.8, "unit": "%"}, {"measurement": "viability at 10 µM", "setting": "[2]; [3]", "value": 81.9, "unit": "%"}, {"measurement": "viability at 0.1 µM", "setting": "[2]; [4]", "value": 92, "unit": "%"}, {"measurement": "viability at 1 µM", "setting": "[2]; Homo sapiens, VCaP, 120 h, read-out: Survival rate of Vcap cells, Table 4, tested compound alone, 1 μM", "value": 82.8, "unit": "%"}, {"measurement": "viability at 10 µM", "setting": "[2]; [4]", "value": 81.9, "unit": "%"}, {"measurement": "viability at 0.1 µM", "setting": "[2]; [5]", "value": 87.7, "unit": "%"}, {"measurement": "viability at 1 µM", "setting": "[2]; Homo sapiens, VCaP, 120 h, read-out: Survival rate of Vcap cells, Table 5, tested compound alone, 1.0 μM", "value": 75.3, "unit": "%"}, {"measurement": "viability at 10 µM", "setting": "[2]; [5]", "value": 72.3, "unit": "%"}, {"measurement": "viability at 0.1 µM", "setting": "[2]; [6]", "value": 83.9, "unit": "%"}, {"measurement": "viability at 1 µM", "setting": "[2]; Homo sapiens, VCaP, 120 h, read-out: Survival rate of Vcap cells, Table 9, tested compound alone, 1.0 μM", "value": 74.8, "unit": "%"}, {"measurement": "viability at 10 µM", "setting": "[2]; [6]", "value": 69.1, "unit": "%"}, {"measurement": "viability at 0.1 µM", "setting": "[2]; [7]", "value": 83.9, "unit": "%"}, {"measurement": "viability at 1 µM", "setting": "[2]; Homo sapiens, VCaP, 120 h, read-out: Survival rate of Vcap cells, Table 10, tested compound alone, 1.0 μM", "value": 74.7, "unit": "%"}, {"measurement": "viability at 10 µM", "setting": "[2]; [7]", "value": 69.1, "unit": "%"}, {"measurement": "inhibition at 0.41 µM", "setting": "[2]; [8]", "value": 18.7, "unit": "%"}, {"measurement": "inhibition at 1.23 µM", "setting": "[2]; [8]", "value": 20.7, "unit": "%"}, {"measurement": "inhibition at 11.11 µM", "setting": "[2]; [8]", "value": 20.9, "unit": "%"}, {"measurement": "inhibition at 33.33 µM", "setting": "[2]; [8]", "value": 22, "unit": "%"}, {"measurement": "inhibition at 100 µM", "setting": "[2]; [8]", "value": 19.6, "unit": "%"}, {"measurement": "Survival rate of Vcap cells", "setting": "[2]; Table 3, tested compound 0.1 μM in combination with 1 μM ARN-509", "value": 42.0, "unit": "%"}, {"measurement": "Survival rate of Vcap cells", "setting": "[2]; Table 3, tested compound 0.1 μM in combination with 1 μM Enzalutamide", "value": 40.3, "unit": "%"}, {"measurement": "Survival rate of Vcap cells", "setting": "[2]; Table 3, tested compound 1.0 μM in combination with 1 μM ARN-509", "value": 34.7, "unit": "%"}, {"measurement": "Survival rate of Vcap cells", "setting": "[2]; Table 3, tested compound 1.0 μM in combination with 1 μM Enzalutamide", "value": 35.6, "unit": "%"}, {"measurement": "Survival rate of Vcap cells", "setting": "[2]; Table 3, tested compound 10 μM in combination with 1 μM ARN-509", "value": 33.5, "unit": "%"}, {"measurement": "Survival rate of Vcap cells", "setting": "[2]; Table 3, tested compound 10 μM in combination with 1 μM Enzalutamide", "value": 33.7, "unit": "%"}, {"measurement": "Survival rate of Vcap cells", "setting": "[2]; Table 3, tested compound alone, 1.0 μM", "value": 82.8, "unit": "%"}, {"measurement": "Survival rate of Vcap cells", "setting": "[2]; Table 4, tested compound 0.1 μM in combination with 1 μM Abiraterone acetate", "value": 78.5, "unit": "%"}, {"measurement": "Survival rate of Vcap cells", "setting": "[2]; Table 4, tested compound 0.1 μM in combination with 1 μM Galeterone", "value": 51.1, "unit": "%"}, {"measurement": "Survival rate of Vcap cells", "setting": "[2]; Table 4, tested compound 1 μM in combination with 1 μM Abiraterone acetate", "value": 68.0, "unit": "%"}, {"measurement": "Survival rate of Vcap cells", "setting": "[2]; Table 4, tested compound 1 μM in combination with 1 μM Galeterone", "value": 43.3, "unit": "%"}, {"measurement": "Survival rate of Vcap cells", "setting": "[2]; Table 4, tested compound 10 μM in combination with 1 μM Abiraterone acetate", "value": 62.9, "unit": "%"}, {"measurement": "Survival rate of Vcap cells", "setting": "[2]; Table 4, tested compound 10 μM in combination with 1 μM Galeterone", "value": 42.8, "unit": "%"}, {"measurement": "Survival rate of Vcap cells", "setting": "[2]; Table 4, tested compound alone, 1 μM", "value": 82.8, "unit": "%"}, {"measurement": "Survival rate of Vcap cells", "setting": "[2]; Table 5, tested compound 0.1 μM in combination with 1 μM ODM-201", "value": 52.7, "unit": "%"}, {"measurement": "Survival rate of Vcap cells", "setting": "[2]; Table 5, tested compound 1.0 μM in combination with 1 μM ODM-201", "value": 41.4, "unit": "%"}, {"measurement": "Survival rate of Vcap cells", "setting": "[2]; Table 5, tested compound 10 μM in combination with 1 μM ODM-201", "value": 37.5, "unit": "%"}, {"measurement": "Survival rate of Vcap cells", "setting": "[2]; Table 5, tested compound alone, 1.0 μM", "value": 75.3, "unit": "%"}, {"measurement": "Survival rate of Vcap cells", "setting": "[2]; Table 9, tested compound 0.1 μM in combination with 1 μM ARN-509", "value": 50.9, "unit": "%"}, {"measurement": "Survival rate of Vcap cells", "setting": "[2]; Table 9, tested compound 0.1 μM in combination with 1 μM Enzalutamide", "value": 52.1, "unit": "%"}, {"measurement": "Survival rate of Vcap cells", "setting": "[2]; Table 9, tested compound 1.0 μM in combination with 1 μM ARN-509", "value": 42.6, "unit": "%"}, {"measurement": "Survival rate of Vcap cells", "setting": "[2]; Table 9, tested compound 1.0 μM in combination with 1 μM Enzalutamide", "value": 42.3, "unit": "%"}, {"measurement": "Survival rate of Vcap cells", "setting": "[2]; Table 9, tested compound 10 μM in combination with 1 μM ARN-509", "value": 40.9, "unit": "%"}, {"measurement": "Survival rate of Vcap cells", "setting": "[2]; Table 9, tested compound 10 μM in combination with 1 μM Enzalutamide", "value": 38.4, "unit": "%"}, {"measurement": "Cell survival rate", "setting": "[2]; notes of Table 9: 1.0 μM tested compound in combination with 1.0 μM Enzalutamide", "value": 42.6, "unit": "%"}]}
